From patent EP0923292B1, “IMPROVED METHOD FOR SYSTEMIC ADMINISTRATION OF 2,4-DIENOIC ACID-TYPE INSECTICIDES TO TERRESTRIAL MAMMALS” (priority 1996, dated 1998)
Like-named read-outs stand apart in the source and are kept apart here.

Tests used:
[1] = system: C. felis; conditions: supplier's technical literature; cited from earlier work
[2] = system: adult cat fleas; experiment: Flea ovicidal activity in vitro: artificial feeding system with treated beef blood (Examples 4 and 6); set-up: species or system C. felis; conditions: Ctenocephalides felis, read-out: Percent Inhibition of Flea Egg Hatching; for inhibition at 0.5 ppm: 0.5 ppm in beef blood; for inhibition at 5 ppm: 5.0 ppm in beef blood; for inhibition at 0.05 ppm: 0.05 ppm in beef blood
Source text: For the in vitro tests, an artificial feeding system with cages for adult cat fleas C. felis was used as described by Wade, S.E., et al., J. Med. Ent. 25(3): 186-190 (May 1988). Inside each cage were placed 100 one-week-old, unfed adult C. fells. Each cage included a container for treated blood separated from the fleas by a PARAFILM® membrane, and a compartment containing thin strips of paper to support loosely arranged clean dog hair and to provide a foothold for the fleas as they fed on the blood through the membrane.
The artificial feeding system and cages for adult cat fleas described in Example 3 were used. Beef blood was used for the feeding system, and was prepared by adding 35 mL of a 20% sodium citrate solution per liter of blood to prevent clotting. A stock solution of lufenuron was prepared by adding 50.1 mg of technical lufenuron to 4.951 g of dimethyl sulfoxide (DMSO) to yield a 1.0% solution. A 1,000 ppm solution was then prepared by diluting 1.0 mL of the 1.0% solution in 9.0 mL of DMSO, and a 100 ppm solution was prepared by diluting 1.0 mL of the 1,000 ppm solution in 9.0 mL of DMSO. Dimethyl sulfoxide itself was used as a control. To treat the blood, the various solutions (0.05 mL) were added to the citrated beef blood (100.0 mL) to yield beef blood solutions containing 5.0 ppm, 0.5 ppm, 0.05 ppm, and 0.00 (zero) ppm lufenuron. Each solution was mixed thoroughly, and 10 mL at each concentration were placed in each of five feeders in the artificial feeding system to serve as replicates. Each day fresh blood solutions identical to the originals were placed in the feeders.
Flea eggs were collected from each replicate on days 3, 5 and 7. One hundred (100) healthy appearing […] were counted under a dissecting microscope from each replicate, divided into two subsamples per replicate, and placed in 60 mm x 15 mm plastic petri dishes. The samples were incubated at 78°F and 85% relative humidity for three days, then scored for larval hatch using by visual observation through the dissecting microscope. The data from all replicates at each concentration were combined to yield the mean percent egg hatch, and the percent inhibition of egg hatch was calculated relative to the control.
Retuming to (S)-methoprene, this example presents in vitro flea ovicidal activity using beef blood, for comparison with Example 4. Procedures using beef blood were the same as those indicated in the previous examples.

[3] = remaining for at least 14 days after the administration of a single dose of 10 mg/kg; supplier's technical literature; cited from earlier work
[4] = system: C. Felis fleas; experiment: Lufenuron systemic flea ovicidal activity upon oral administration to host dogs (Example 5); assay type: in vivo, C. felis (host: dogs); conditions: oral single doses of 10 mg/kg at Day 0 and Day 28
Protocol: Flea eggs were collected on Days -7, 0, 1, 2, 4, 7, and weekly thereafter through Day 63. Prior to egg collection, the cages in which the dogs were housed and the collection trays were rinsed with isopropyl alcohol, and the water was turned off, feed bowls and resting pads were removed from each cage. Trays covered with a screen made of […] hardware cloth were placed under the cages, and heavy white butcher paper was placed under the hardware cloth. After an interval of 14-16 hours, the paper was swept and the debris and flea eggs thus collected were transferred to a metal pan. The debris was separated from the eggs by sieving, and the eggs were placed in half-pint plastic cartons, then transferred to 10 cm x 10 cm glass plates. Using a dissecting microscope and a fine tipped artist brush, 100 flea eggs were counted from the sweepings of each dog and separated into four replicates of 25 eggs each. The eggs were placed in a 15 mm x 60 mm disposable plastic petri dish and incubated at 79-80°F and 80% relative humidity. Seventy two hours after collection, larvae emergence was determined. Both dead and live larvae were counted to determine the ovicidal effect of the treatment.
Six random bred and purebred, clinically healthy dogs, three male and three female, ranging in weight from 5.5 kg to 17.2 kg each and in age from 5 months to 42 months, and having hair coats ranging from medium to coarse and from 1.0 to 5.0 cm in length, were used. The dogs were divided into two treatment groups of three dogs each. The dogs were all maintained on regular feeding schedules of dog food and water, and each dog in one of the two groups was administered an appropriate number of lufenuron-containing gelatin capsules to achieve a dosage of 10 mg/kg of the body weight of the dog. This dosage is identified in the supplier's technical literature as the minimum effective dosage for C. felis in dogs, and the dosage that will result in a blood concentration level of 0.05 ppm remaining for at least 14 days after the administration of a single dose. Administration was performed at Day 0 and again at Day 28.
On Days -8 (eight days before the lufenuron administration), -4, 3, 10, 17, 24, 31, 38, 45, 52, and 59, approximately 100 unfed adult C. Felis fleas were applied to each dog by standard procedures. Flea eggs were collected and larval emergence (egg hatching) was determined by the procedures of Example 2 on Days -4, 0, 1, 2, 4, 7, 14, 21, 28, 35, 42, 49, and 56.

## O=C(NC(=O)c1c(F)cccc1F)Nc1cc(Cl)c(OC(F)(F)C(F)C(F)(F)F)cc1Cl (stereo not drawn) [Lufenuron]
[1]
  minimum effective dosage for C. felis in dogs: 10 mg/kg
[2]; 72 h, day 3, low number of eggs produced in both controls and treated groups
  inhibition at 0.5 ppm: 80.6%
[2]; 72 h, day 3
  inhibition at 5 ppm: 100%
[2]; 120 h, day 5
  inhibition at 0.05 ppm: 10.8%
  inhibition at 0.5 ppm: 56.5%
  inhibition at 5 ppm: 99.8%
[2]; 168 h, day 7
  inhibition at 0.05 ppm: 6.9%
  inhibition at 0.5 ppm: 63.2%
  inhibition at 5 ppm: 100%
[3]
  blood concentration level: 0.05 ppm
[4]; Day 1
  Percent Inhibition of Flea Egg Hatching: 39.9%
[4]; Day 2
  Percent Inhibition of Flea Egg Hatching: 70.6%
[4]; Day 4
  Percent Inhibition of Flea Egg Hatching: 54.5%
[4]; Day 7
  Percent Inhibition of Flea Egg Hatching: 54.1%
[4]; Day 14
  Percent Inhibition of Flea Egg Hatching: 52.1%
[4]; Day 21
  Percent Inhibition of Flea Egg Hatching: 10.7%
[4]; Day 28
  Percent Inhibition of Flea Egg Hatching: 0%
[4]; Day 35
  Percent Inhibition of Flea Egg Hatching: 48.6%
[4]; Day 42
  Percent Inhibition of Flea Egg Hatching: 0%
[4]; Day 49
  Percent Inhibition of Flea Egg Hatching: 72.7%
[4]; Day 56
  Percent Inhibition of Flea Egg Hatching: 20.5%
